Reference: patent US20220145264A1, “CULTURE MEDIUM FOR MAMMALIAN EXPANDED POTENTIAL STEM CELLS, COMPOSITION, AND METHODS THEREOF” (THE UNIVERSITY OF HONG KONG, priority 2019, published 2022)

System: Dox dependent porcine iPSCs
Assay: Screening for the porcine EPSC culture conditions
Type: cell-based
Settings: 1.0 μM, irrespective of whether Dox was present
Protocol: Dox dependent porcine iPSCs were dissociated in 0.25% trypsin/EDTA solution (Gibco, Cat. No. 25500-054) and seeded in 24-well STO feeder plates at a density of 1×10^4 cells per well. The cells were cultured in M15 supplemented with Dox (Sigma, Cat. No. D9891), Vitamin C (Sigma, Cat. No. 49752-100G) and 10 ng/ml bFGF (SCI) for two days before the culture media was switched to medium supplemented with indicated small molecules and cytokines (Supplementary Table 1). M15 and N2B27 media: see above. AlbumMax media: DMEM/F12 (Gibco, Cat. No. 21331-020), 20% AlbumMax II (Gibco, Cat. No. 11021-037), […] Human Insulin (Sigma, Cat. No. 91077C), 2×B27 Supplement, […] IGFII (R&D, Cat. No. 292-G2-250), 1×Glutamine Penicillin-Streptomycin (Thermo Fisher Scientific, Cat. No. 11140-050), 1×NEAA (Thermo Fisher Scientific, Cat. No. 10378-016) and 0.1 mM 2mercaptoethanol (Sigma, Cat. No. M6250). 20% KSR media: DMEM/F-12 (Gibco, Cat. No. 21331-020), 20% KnockOut Serum Replacement (KSR) (Gibco, Cat. No. 10828-028), 1× glutamine penicillin-streptomycin (Thermo Fisher Scientific, Cat. No. 11140-050), 1×NEAA (Thermo Fisher Scientific, Cat. No. 10378-016) and 0.1 mM 2-mercaptoethanol (Sigma, Cat. No. M6250). […]

With O=C(NOC[C@H](O)CO)c1ccc(F)c(F)c1Nc1ccc(I)cc1F [PD0325901] the “survival of porcine iPSCs / porcine cells in the screens” value was “deleterious to porcine cells” and the “survival of porcine iPSCs / porcine cells in the screens” value (listed as PD-0325901) was “rapidly lost”.
